From ChEMBL document CHEMBL1146515, “Four new triterpenoids from Maytenus ilicifolia” (J Nat Prod, 2004)
Values after ≈ are worked out from the molar mass of the structure shown. Active and inactive are the calls of the source. The calls are words filed in the database; no cut-off is given here.

Tests used:
Format in all cases: functional, cell-based
[1] = tested on: KB; assay: Cytotoxicity against vincristine-sensitive human KB cells after 72 hrs by alamar blue assay
[2] = tested on: KB/VJ300; assay: Reversal of vincristine resistance in human KB/VJ300 cells
[3] = tested on: HL-60; assay: Induction of human HL60 cell differentiation assessed as morphological change at 0.05 to 25 ug/ml by phase-contrast microscopy
[4] = species: Homo sapiens; assay: Cytotoxicity against human KU-19-20 cells after 72 hrs by alamar blue assay
[5] = tested on: KB/VJ300; assay: Cytotoxicity against vincristine-resistant human KB/VJ300 cells after 72 hrs by alamar blue assay

C=C(C)[C@@H]1CC[C@]2(CO)CC[C@]3(C)[C@H](CC[C@@H]4[C@@]5(C)C[C@@H](O)C(=O)C(C)(C)[C@@H]5CC[C@]43C)[C@H]12 [MAYTEFOLIN A]
IC50 [1]: > 10 mg/L | Activity [2]: inactive | Activity [3]: inactive

CC1(C)CC[C@]2(CO)CC[C@]3(C)C(=CC[C@@H]4[C@@]5(C)CC[C@H](OC(=O)/C=C/c6ccc(O)c(O)c6)C(C)(C)[C@@H]5CC[C@]43C)[C@H]2C1
IC50 [1]: > 10 mg/L | Activity [2]: inactive | Activity [3]: inactive

CC1(C)CC[C@]2(CO)CC[C@]3(C)C(=CC[C@@H]4[C@@]5(C)CC[C@H](O)C(C)(C)[C@@H]5CC[C@]43C)[C@@H]2C1 [ERYTHRODIOL]
Activity [4]: Active | Activity [5]: Active | IC50 [1]: 7 mg/L (≈ 15.8 µM) | Activity [2]: inactive | Activity [3]: inactive

C=C(C)[C@@H]1CC[C@]2(CO)CC[C@]3(C)[C@H](CC[C@@H]4[C@@]5(C)CC[C@H](O)C(C)(C)[C@@H]5CC[C@]43C)[C@@H]12 [BETULIN]
IC50 [1]: > 10 mg/L | Activity [2]: inactive | Activity [3]: inactive

C[C@H]1[C@H](C)CC[C@]2(CO)CC[C@]3(C)C(=CC[C@@H]4[C@@]5(C)CC[C@H](OC(=O)/C=C/c6ccc(O)c(O)c6)C(C)(C)[C@@H]5CC[C@]43C)[C@H]12
IC50 [1]: > 10 mg/L | Activity [2]: inactive | Activity [3]: inactive

C=C(C)[C@@H]1CC[C@]2(CO)CC[C@]3(C)[C@H](CC[C@@H]4[C@@]5(C)CC[C@H](OC(=O)/C=C/c6ccc(O)c(O)c6)C(C)(C)[C@@H]5CC[C@]43C)[C@@H]12
IC50 [1]: > 10 mg/L | Activity [2]: inactive | Activity [3]: inactive
